Test results as given in patent publication EP1431294A1, “VASCULAR WALL-SELECTIVE ACAT INHIBITOR” (Kowa Company Ltd., priority 2001, dated 2003).
Blank lines part the entries; values can stand above or below the molecule they belong to.

Tests used:
[1] = tested on: lipid-loaded model of F1B hamster; assay: Arteriosclerotic model animal test (lipid-loaded F1B hamster); settings: for CE/FC Adrenal Gland / CE/FC Lipid Accumulation to Artery / CE/FC Liver / CE/FC Small Intestine: ratio to control (1.0)
Experimental: Male hamsters of a Bio F1B strain purchased from Nippon Charles River were randomly grouped so that each group comprised six. As from eight weeks age, they were loaded with a high-fat feed (0.3% of cholesterol and 10% of coconut oil) for ten weeks while the drug was administered by mixing with the feed. After ten weeks, blood was collected and cholesterol in plasma was measured. Further, arterywas excised after fixingbyperfusion with a 10% formalin solution. This was incised, lipid which was accumulated in the artery was stained with Oil Red O and the stained area was measured using an image analyzer.
A high-fat feed (0.3% of cholesterol and 10% of coconut oil) was prepared by way of compounding ratio of cholesterol : coconut oil : feed (CE-2) = 0.03:1:9. Incidentally, a high-fat feed was given to the control group and the administered period was 10 weeks.
Hamster under a non-fasted state was anesthetized, subj ected to an abdominal section to expose the abdominal artery and about 2.5 mL of blood were collected. The collected blood was centrifuged at 3, 000 rpm for 15 minutes to collect the plasma and then total cholesterol (TC) and free cholesterol (FC) in plasma were determined by a Cholesterol E-Test Wako (a cholesterol oxidase DAOS method) and a Free Cholesterol E-Test Wako (a cholesterol oxidase DAOS method), respectively.
About 500 mg of liver, small intestine and adrenal body were excised and washed with a physiological saline solution and lipid concentration in the tissues was measured. In the measurement, 10 mL of chloroform : methanol (2:1) as an extracting solution for lipid in the tissue were placed in the liver and the small intestine, homogenized at 3,000 rpm using a Polytron Homogenizer PT 3100 and allowed to stand at 4°C for one night. The extract was centrifuged at 1,500 rpm for 15 minutes, 0.2 mL of the supernatant liquid was evaporated to dryness using a vacuum pump, the residue was dissolved in 50 µL of isopropanol and each lipid was subjected to the same kits whereupon TC and FC were quantified. With regard to the adrenal body, it was finely cut using scissors and 0.5 mL of chloroform : methanol (2:1) was added thereto followed by being allowed to stand at 4°C for one night. That was centrifuged at 1,500 rpm for 15 minutes, 0.2 mL of the supernatant liquid was evaporated to dryness using a vacuum pump, the residue was dissolved in 50 µL of isopropanol and each lipid was subjected to the same kits whereupon TC and FC were quantified.
With regard to the total cholesterol (TC) in plasma in the group to which the drug was administered, the relative ratio to TC in the control group was used as an indicator while, with regard to the tissue, difference between TC and FC was defined as CE (cholesterol ester) and the lipid-constituting ratio, CE/FC, in each organ was determined whereupon their relative ratio to each control was calculated and used as an indicator. Thus, in those indicators, the control group was defined as 100% and the calculation using the following formula was carried out so as to use a plasma TC lowering action by ACAT inhibitory action to liver and small intestine of the group to which the drug was administered as an indicator and also to use the variation of CE/FC ratio by an ACAT inhibitory action to each organ as an indicator. Indicator (%) for total cholesterol in plasma = [(TC of drug-administered group)/(TC of the control group)] × 100 [formula] Indicator (%) for lipid constituting ratio in each organ = [(CE/FC of drug-administered group)/(CE/FC of the control group)] × 100 [formula]
After collection of the blood, a 18-G injection needle was inserted into apex and perfused with a physiological saline solution (120 mmHg) for about 5minutes. It was further perfused with a 10% neutral formalin buffer (120 mmHg) for about 5 minutes. Bulbar and thoracic artery was excised and fixed in a 10% formalin buffer.

ACAT [2] = assay: ACAT inhibitory activity test in HepG2 cells; assay type: cell-based; settings: 25-hydroxycholesterol 10 µg/mL, 18 hours, cholesterol ester per protein
Experimental: (§1) J774 cells or HepG2 cells were sown on a 24-well plate and incubation was carried out at 37°C for 24 hours in a 5% CO2 incubator using a Dulbecco's modified Eagle's medium for J774 cells and an Eagle's minimum essential medium for HepG2 cells (where both media contained 10% of fetal bovine serum). […] The medium was taken out, washed with PBS twice, extracted with 1.5 mL of hexane-isopropanol (3:2) and concentrated to dryness. The extract was dissolved in isopropanol containing 0.2 mL of 10% Triton X-100 and then total cholesterol (TC) and free cholesterol (FC) were determined by a Cholesterol E Test Wako (Wako Pure Chemical) and a Free Cholesterol E Test Wako (Wako Pure Chemical), respectively. The residue of the cell after extraction was solubilized with 0.25 mL of 2N NaOH at 37°C for 30 minutes and protein was determined by a BCA Protein Assay Reagent (Pierce). From the differencebetween TC and FC, amount of cholesterolester per protein was calculated and, from the comparative calculation with the control, IC50 value was determined.

[3] = Oral absorption test in rats under a fed condition (plasma concentration); assay type: in vivo; settings: rat, 30 mg/kg
ACAT [4] = target: T1, ACAT (Mus musculus, UniProt Q61263); assay: ACAT inhibitory activity test in J774 cells (anti-foaming action); assay type: cell-based; settings: for IC50: J774 cells, 25-hydroxycholesterol 10 µg/mL, 18 hours, cholesterol ester per protein
T1 construct: J774 cells or HepG2 cells were sown on a 24-well plate; endogenous in cells; host or cells: J774 cells
T1 sequence (Q61263 1-540): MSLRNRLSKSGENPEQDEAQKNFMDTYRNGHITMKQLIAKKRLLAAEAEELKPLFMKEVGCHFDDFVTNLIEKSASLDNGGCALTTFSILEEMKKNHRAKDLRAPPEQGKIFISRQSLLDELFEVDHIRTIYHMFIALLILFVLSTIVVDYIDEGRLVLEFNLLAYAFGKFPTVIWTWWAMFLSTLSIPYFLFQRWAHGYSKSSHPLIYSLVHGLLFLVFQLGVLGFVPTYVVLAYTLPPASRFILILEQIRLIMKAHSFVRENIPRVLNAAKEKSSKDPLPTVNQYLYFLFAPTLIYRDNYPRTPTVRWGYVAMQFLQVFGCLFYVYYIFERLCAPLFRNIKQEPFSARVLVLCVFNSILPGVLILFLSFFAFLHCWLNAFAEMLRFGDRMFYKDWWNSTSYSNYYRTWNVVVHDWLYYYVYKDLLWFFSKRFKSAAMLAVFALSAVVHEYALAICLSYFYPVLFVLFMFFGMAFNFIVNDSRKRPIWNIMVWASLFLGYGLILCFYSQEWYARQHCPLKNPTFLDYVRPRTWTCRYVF
Experimental: as §1

[5] = Oral absorption test in rats under a fed condition (plasma concentration); assay type: in vivo; settings: compared with the compound of Example 1; rats, 30 mg/kg
Experimental: A solution of the compound of the present invention (dissolved in a mixture of water : PEG 400 = 1:4) or a suspension in 0.5% methyl cellulose (MC) was compulsorily administered per os at. the dose of 30 mg/kg to three rats under a fed condition. Blood after the administration was periodically collected and its concentration in plasma was measured.
The organic layer (upper layer) was collected, the solvent was evaporated in a nitrogen stream, the residue was dissolved in 0.2 mL of a mobile phase (refer to the following) and 80 µL thereof were measured under the following analytical conditions.
The organic layer was collected, the solvent was evaporated in a nitrogen stream, the residue was dissolved in 0.2 mL of a mobile phase (refer to the following) and 80 µL thereof were measured under the following condition for high-performance liquid chromatography. Condition for detection: • (Detector: Single-stage quadrupole mass spectrometer • Ionization method: Atmospheric pressure chemical ionization method • Temperature of nebulizer: 475°C • Corona voltage: 3 kV • Monitoring ion: m/z 569 (hydrogen addition ion of the compound of Example 78), 549 (hydrogen addition ion of the compound of Example 85)) Condition for separation: • (Column: Symmetry RP8 manufactured by Waters (3.0 mmφ × 150 mm) • Temperature of column: 45°C • Mobile phase: a solution where 0.1% ammonium formate (pH 4)/methanol/acetonitrile are mixed in […] • Flow rate: 0.8 mL/min)
To 150 µL of plasma were added a 0.1 mol/L aqueous solution of sodium hydroxide and 0.2 mL of an analogous compound (500 ng/mL of the compound of Example 28 of the Japanese Patent Application No. 8/158,743, i.e. 8-(benzimidazol-2-ylthio)-N-(2,6-diisopropylphenyl)octanamide as an internal standard, stirred and extracted with 6 mL of an isopropanol/hexane (5: 95) solution. The organic layer was collected, the solvent was evaporated in a nitrogen stream, the residue was dissolved in 0.2 mL of a mobile phase (refer to the following) and 80 µL thereof were measured under the following condition for high-performance liquid chromatography.

[6] = dose 10 mg/kg in feed, 10 weeks
[7] = dose 30 mg/kg in feed, 10 weeks

Compound: CSc1cc(C)nc(SC)c1NC(=O)CN1CCN(CCSc2nc3ccccc3o2)CC1 [Example 24, N-[2,4-bis (methylthio) -6-methyl-3-pyridyl]-2-[4-[2-(benzoxazol-2-ylthio)ethyl]-piperazin-1-yl]acetamide]
dose from which suppression of lipid accumulation was effective ([1]; F1B hamsters, drug in high-fat feed, 10 weeks): ≥ 3 mg/kg
plasma cholesterol at doses effective in suppression of lipid accumulation ([1]; F1B hamsters, total cholesterol in plasma relative to control, Dunnett's test): accompanied by a significant decrease of plasma cholesterol
CE/FC Adrenal Gland ([1]; dose 1 mg/kg in feed, 10 weeks): 0.6
CE/FC Lipid Accumulation to Artery ([1]; dose 1 mg/kg in feed, 10 weeks): 0.91
CE/FC Liver ([1]; dose 1 mg/kg in feed, 10 weeks): 0.89
CE/FC Small Intestine ([1]; dose 1 mg/kg in feed, 10 weeks): 0.79
CE/FC Adrenal Gland ([1]; dose 3 mg/kg in feed, 10 weeks): 0.34
CE/FC Lipid Accumulation to Artery ([1]; dose 3 mg/kg in feed, 10 weeks): 0.37
CE/FC Liver ([1]; dose 3 mg/kg in feed, 10 weeks): 0.36
CE/FC Small Intestine ([1]; dose 3 mg/kg in feed, 10 weeks): 0.45
CE/FC Adrenal Gland [1, 6]: 0.11
CE/FC Lipid Accumulation to Artery [1, 6]: 0.32
CE/FC Liver [1, 6]: 0.16
CE/FC Small Intestine [1, 6]: 0.21
CE/FC Adrenal Gland [1, 7]: 0.11
CE/FC Lipid Accumulation to Artery [1, 7]: 0.28
CE/FC Liver [1, 7]: 0.09
CE/FC Small Intestine [1, 7]: 0.13

Compound: CC(C)c1cc(O)cc(C(C)C)c1NC(=O)CN1CCN(CCSc2nc3ccccc3o2)CC1 [Example 72, 2-[4-[2-(benzoxazol-2-ylthio)ethyl]piperazin-1-yl]-N-(2,6-diisopropyl-4-hydroxyphenyl) acetamide]
IC50 (ACAT [2]): 0.78 µM
AUC(0-inf) ([3]; medium 0.05N (Aq HCl)): 1.09 µg·h/mL
Cmax ([3]; medium 0.05N (Aq HCl)): 0.47 µg/mL
IC50 (ACAT [4]): 0.13 µM
improving effect in oral absorption in terms of Cmax value [5]: about 4.3 fold

Compound: CC(C)c1cccc(C(C)C)c1NC(=O)CN1CCN(CCSc2nc3cccc(C(F)(F)F)c3o2)CC1 [Example 85, 2-[4-[2-(7-trifluoromethylbenzoxazol-2-ylthio)ethyl]piperazin-1-yl]-N-(2,6-diisopropylphenyl)acetamide]
IC50 (ACAT [2]): 0.68 µM
AUC(0-inf) ([3]; medium PEG 400): 0.0718 µg·h/mL
Cmax ([3]; medium PEG 400): 0.0176 µg/mL
IC50 (ACAT [4]): 0.019 µM

Now from value to molecule:

IC50 (ACAT [2]): 10 µM
macrophage selectivity (IC50 (HepG2)/IC50 (J774)) (ACAT [4]): not less than 96 fold
IC50 (ACAT [4]): 0.1 µM
Compound: COc1cc(C(C)C)c(NC(=O)CN2CCN(CCSc3nc4ccccc4o3)CC2)c(C(C)C)c1 [Example 75, 2-[4-[2-(benzoxazol-2-ylthio)ethyl]piperazin-1-yl]-N-(2,6-diisopropyl-4-methoxyphenyl)acetamide]

AUC(0-inf) ([3]; medium PEG 400:DMSO = 5:1): 0.0298 µg·h/mL
Cmax ([3]; medium PEG 400:DMSO = 5:1): 0.0148 µg/mL
IC50 (ACAT [4]): 0.014 µM
Compound: CCOCCOc1cc(C(C)C)c(NC(=O)CN2CCN(CCSc3nc4ccccc4o3)CC2)c(C(C)C)c1 [Example 78, 2-[4-[2-(benzoxazol-2-ylthio)ethyl]piperazin-1-yl]-N-[2,6-diisopropyl-4-(2-ethoxyethyl)oxyphenyl]acetamide]
